Results from patent US7488592B2, “Human protein acyl transferases and methods of uses therefor” (Washington University, priority 2003, dated 2009).
Blank lines part the entries; values can stand above or below the compound they belong to.

Key:
PAT = settings: reported by Webb et al., 2000; cited from earlier work
Erf2p/Erf4p complex = target: T1, Erf2p/Erf4p complex (Saccharomyces cerevisiae, UniProt Q06551); assay: Autopalmitoylation of Erf2p, microtiter plate assay with [3H]palmitoyl CoA; type: biochemical, yeast; settings: 2-bromopalmitate 16, 63 or 250 μM; 30 minutes at 25 °C; no substrate
T1 construct: FLAG (N); made in house
T1 sequence (Q06551 1-359): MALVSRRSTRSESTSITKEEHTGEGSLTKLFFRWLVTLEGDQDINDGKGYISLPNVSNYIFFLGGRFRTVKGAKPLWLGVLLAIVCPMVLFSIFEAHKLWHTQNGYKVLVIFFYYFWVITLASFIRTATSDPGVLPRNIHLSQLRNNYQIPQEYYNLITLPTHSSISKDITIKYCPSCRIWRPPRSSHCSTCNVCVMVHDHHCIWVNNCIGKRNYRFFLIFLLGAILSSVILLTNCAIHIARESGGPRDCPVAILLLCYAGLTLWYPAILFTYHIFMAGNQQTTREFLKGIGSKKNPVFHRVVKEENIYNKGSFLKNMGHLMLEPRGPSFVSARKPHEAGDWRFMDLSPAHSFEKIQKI
T1 sequence (P41912 1-237 partner): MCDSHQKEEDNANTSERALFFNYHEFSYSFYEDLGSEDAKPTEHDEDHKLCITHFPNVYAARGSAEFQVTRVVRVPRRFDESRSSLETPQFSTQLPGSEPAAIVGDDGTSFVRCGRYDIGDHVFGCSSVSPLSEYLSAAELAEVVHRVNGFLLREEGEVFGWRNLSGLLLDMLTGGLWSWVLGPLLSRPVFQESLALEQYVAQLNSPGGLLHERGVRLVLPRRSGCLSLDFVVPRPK
Protocol: FIG. 19—Inhibition of autopalmitoylation of Erf2p. Partially purified […]/GST-Erf4p (2.7 nM) was bound to the well of a GSH coated microtiter plate. The complex was incubated in reaction buffer (122 mM NaCl, 183 mM Tris HCl pH 7.8, 0.6 mM DTT and 0.035% Triton X-100) (registered trademark of Union Carbide Chemicals and Plastics Co., Inc. for a compound of formula C14H22O(C2H4O)n (CAS No. 9002-93-1); hereinafter referred to as “Triton X-100”))in the presence or absence of 2-bromopalmitate (16 .μ.M, 63 .μ.M or 250 .μ.M). The autopalmitoylation reaction was initiated by addition of 5 .μ.l of 3 .μ.M [^ 3H]palmitoyl CoA and the reaction was incubated for 30 minutes at 25 ° C. The wells were washed (3 × 200 .μ.l 20 mM phosphate pH 6 with 1% Triton X-100) and 3 × 200 .μ.l 25% ipa in water. Finally, wash with 2 × 200 .μ.l 20 mM phosphate pH 6 with 150 mM NaCl. The wells were counted in scintillation fluid.
The inventors tested whether 2-BP inhibits autopalmitoylation of yeast Erf2p.

yeast Erf2p/Erf4p = target: T2, yeast Erf2p/Erf4p (Saccharomyces cerevisiae, UniProt Q06551); assay: Ras PAT assay: [3H]palmitate incorporation into GST-Ras(HV)CCaaX by partially purified Erf2p/Erf4p, with competitor or inhibitor; type: biochemical, S. cerevisiae; settings: 0.5 μM [3H]palmitoyl-CoA; for effectiveness as competitor of the radioactive Ras PAT reaction (in words): unlabeled acyl-CoA at concentrations similar to 8 μM, FIG. 17
T2 construct: made in house; host or cells: S. cerevisiae RJY543 (galactose-induced)
T2 sequence (Q06551 1-359): T1 sequence (Q06551 1-359)
T2 sequence (P41912 1-237 partner): T1 sequence (P41912 1-237 partner)
Protocol: FIG. 17—Concentration dependent inhibition of yeast PAT activity by acyl-CoAs. Partially purified yeast Erf2p/Erf4p was assayed for PAT activity in the presence of 0.5 μM [^3H]palmitoyl-CoA and the indicated concentrations of unlabeled acyl-CoA substrates as indicated: decanoyl-CoA (C10:0), lauroyl-CoA (C12:0), myristoyl-CoA (C14:0), palmitoyl-CoA (C16:0), palmitoleoyl-CoA (C16:1), stearoyl-CoA (C18:0), and oleoyl-CoA (C18:1). Radiolabeled palmitoylated GST-Ras(HV)CCaaX was excised from the gel and quantitated. Results are expressed as a percent of Ras PAT activity in the absence of competitor (100%).
FIG. 18—Inhibition of Erf2p/Erf4p-dependent PAT by 2-bromopalmitate. Partially purified Erf2p/Erf4p was assayed for palmitoyltransferase activity using GST-Ras(HV)CCaaX (1.33 μM) and 0.5 μM [^3H]palmitoyl-CoA as substrate. Radiolabeled palmitoylated GST-Ras(HV)CCaaX was excised from the gel and quantitated. Results are expressed as a percent of Ras PAT activity in the absence of competitor (100%).
Ras PAT Assays—Ras PAT activity was assayed by measuring the incorporation of tritiated palmitate. [^3H]palmitoyl-CoA substrate was synthesized from [^3H]palmitic acid (NEN) and Coenzyme A using acyl-CoA synthetase (Sigma) and purified as described (Taylor et al., 1990). The PAT assay (25 μl of final volume) was performed by adding 1.5 μg of GST-Ras(HV)CCaaX(2 μM) to GST-Erf4p/FLAG-Erf2p GSH beads in 1 mM DTT, 100 mM MES (pH 6.3). The reaction was started by the addition of 1 μl of [^3H]palmitoyl-CoA (0.5 μM), incubated for 15 min at 30° C., and terminated by the addition of 5 μl of a 5× solution of SDS gel loading buffer without DTT. Heat inactivation was performed by boiling (100° C., 15 min) the GSH beads containing GST-Erf4p/FLAG-Erf2p prior to the addition of substrates. The assays were analyzed by SDS-PAGE using Bis-Tris gels, pH 6.4 (Nu-PAGE®), and subjected to fluorography as described (Mitchell et al., 1994). Quantitation of Ras PAT activity was done by excising Ras protein bands from the gel, solubilizing them in Soluene S-350 (Packard), and counting in a scintillation counter.
The lipid substrate specificity of Ras PAT was investigated by adding increasing amounts of unlabeled acyl-CoA competitors to the radioactive Ras PAT reaction. […] Decanoyl (C10:0) was ineffective at similar concentrations. […] Both saturated and unsaturated fatty acyl-CoAs were effective inhibitors. Little difference was observed between C16:0 and C16:1, or C18:0 and C18:1. The lack of complete acyl-CoA substrate specificity of Ras PAT is consistent with the finding that thioester-linked fatty acids on protein are heterogeneous in vivo (Linder, 2001).
Inhibition of autopalmitoylation or substrate palmitoylation can come about by substrates or substrate analogs. […] The lipid substrate specificity of yeast Erf2p/Erf4p for Ras palmitoylation was investigated by adding increasing amounts of unlabeled acyl-CoA competitors to the radioactive Ras PAT reaction. […] Decanoyl (C10:0) was ineffective at similar concentrations. […] Both saturated and unsaturated fatty acyl-CoAs were effective inhibitors. Little difference was observed between C16:0 and C16:1, or C18:0 and C18:1. The lack of complete acyl-CoA substrate specificity of Ras PAT is consistent with the finding that thioester-linked fatty acids on protein are heterogeneous in vivo (Linder, 2001). […]

Compound: CCCCCCCCCCCCCCC(Br)C(=O)O (stereo not shown) [2-BP, 2-Bromopalmitate]
inhibition of PAT activity in vivo (in words) (PAT): inhibit PAT activity in vivo
inhibition of autopalmitoylation of Erf2p (in words) (Erf2p/Erf4p complex): inhibited in a dose-dependent manner
inhibition of Erf2/Erf4-dependent PAT activity using yeast Ras2 as a substrate (in words) (yeast Erf2p/Erf4p; increasing concentrations of 2-BP, GST-Ras(HV)CCaaX 1.33 μM): inhibits

effectiveness as competitor of the radioactive Ras PAT reaction (in words) (yeast Erf2p/Erf4p): ineffective
Compound: CCCCCCCCCC(=O)SCCNC(=O)CCNC(=O)[C@H](O)C(C)(C)COP(=O)(O)OP(=O)(O)OC[C@H]1O[C@@H](n2cnc3c(N)ncnc32)[C@H](O)[C@@H]1OP(=O)(O)O [Decanoyl, decanoyl-CoA]

effectiveness as competitor of the radioactive Ras PAT reaction (in words) (yeast Erf2p/Erf4p): more effective
Compound: CCCCCCCCCCCC(=O)SCCNC(=O)CCNC(=O)[C@H](O)C(C)(C)COP(=O)(O)OP(=O)(O)OC[C@H]1O[C@@H](n2cnc3c(N)ncnc32)[C@H](O)[C@@H]1OP(=O)(O)O [Lauryl, lauroyl-CoA]

effectiveness as competitor of the radioactive Ras PAT reaction (in words) (yeast Erf2p/Erf4p): more effective
Compound: CCCCCCCCCCCCCC(=O)SCCNC(=O)CCNC(=O)[C@H](O)C(C)(C)COP(=O)(O)OP(=O)(O)OC[C@H]1O[C@@H](n2cnc3c(N)ncnc32)[C@H](O)[C@@H]1OP(=O)(O)O [myristoyl, myristoyl-CoA]

inhibition of Ras PAT activity by unlabeled acyl-CoA competitor (yeast Erf2p/Erf4p; 8 μM competitor, a 16-fold excess): 90%
Compound: CCCCCCCCCCCCCCCC(=O)SCCNC(=O)CCNC(=O)[C@H](O)C(C)(C)COP(=O)(O)OP(=O)(O)OC[C@H]1O[C@@H](n2cnc3c(N)ncnc32)[C@H](O)[C@@H]1OP(=O)(O)O [palmitoyl-CoA]
